Values joined by “and” are separate entries in the source; they are usually repeats but may differ in a detail not shown here. Equal entries are not always repeated. Where two headings read alike, the source gives them in different places.
Experiments:
ChoXWV = target: T1, ChoXWV (Sinorhizobium meliloti, UniProt Q92N37); test: Competitive uptake, MKH13 expressing choXWV; type: cell-based; conditions: pNchoXWV, SBP ChoX, [^14C]choline 10 μM, competitor 1 mM
T1 sequence (Q92N37 28-318): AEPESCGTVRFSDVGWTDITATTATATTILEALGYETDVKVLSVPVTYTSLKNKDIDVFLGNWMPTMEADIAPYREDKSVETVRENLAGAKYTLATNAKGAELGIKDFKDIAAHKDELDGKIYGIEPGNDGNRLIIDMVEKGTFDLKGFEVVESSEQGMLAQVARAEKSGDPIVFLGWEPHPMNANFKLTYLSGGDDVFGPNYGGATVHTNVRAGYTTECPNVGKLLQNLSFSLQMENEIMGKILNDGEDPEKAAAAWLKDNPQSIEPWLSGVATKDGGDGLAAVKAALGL
T1 sequence (Q92N36 1-281 partner): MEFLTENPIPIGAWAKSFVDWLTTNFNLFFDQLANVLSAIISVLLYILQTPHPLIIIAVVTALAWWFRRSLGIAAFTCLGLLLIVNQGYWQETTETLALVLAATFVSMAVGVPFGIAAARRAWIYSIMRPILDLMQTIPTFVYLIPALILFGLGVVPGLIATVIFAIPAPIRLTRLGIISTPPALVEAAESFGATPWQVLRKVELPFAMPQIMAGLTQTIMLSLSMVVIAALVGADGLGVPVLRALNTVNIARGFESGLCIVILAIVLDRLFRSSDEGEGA
T1 sequence (Q92N35 1-349 partner): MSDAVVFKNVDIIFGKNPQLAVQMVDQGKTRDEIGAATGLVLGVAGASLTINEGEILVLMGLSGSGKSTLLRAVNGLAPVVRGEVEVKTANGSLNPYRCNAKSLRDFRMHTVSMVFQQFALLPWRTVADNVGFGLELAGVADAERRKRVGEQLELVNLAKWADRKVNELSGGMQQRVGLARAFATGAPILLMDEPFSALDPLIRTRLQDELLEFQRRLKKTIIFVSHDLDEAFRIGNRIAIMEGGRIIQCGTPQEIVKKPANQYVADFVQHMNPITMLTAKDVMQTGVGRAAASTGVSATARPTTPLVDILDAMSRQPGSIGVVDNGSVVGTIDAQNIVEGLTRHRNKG

BetX with CbcWV = target: T2, BetX with CbcWV (Pseudomonas aeruginosa, UniProt Q9HZ04); test: Competitive uptake, MKH13 expressing cbcWV and betX; type: cell-based; conditions: pNcbcWV, pT-PA3236, SBP BetX, [^14C]betaine 10 μM, competitor 1 mM
T2 sequence (Q9HZ04 26-285): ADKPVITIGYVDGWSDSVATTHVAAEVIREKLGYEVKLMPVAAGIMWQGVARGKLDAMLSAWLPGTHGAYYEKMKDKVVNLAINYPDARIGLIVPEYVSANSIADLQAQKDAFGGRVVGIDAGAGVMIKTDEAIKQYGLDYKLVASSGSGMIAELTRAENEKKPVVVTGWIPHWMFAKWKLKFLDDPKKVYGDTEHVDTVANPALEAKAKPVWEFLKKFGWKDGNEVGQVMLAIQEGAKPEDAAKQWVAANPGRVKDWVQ
T2 sequence (Q9HTI7 1-279 partner): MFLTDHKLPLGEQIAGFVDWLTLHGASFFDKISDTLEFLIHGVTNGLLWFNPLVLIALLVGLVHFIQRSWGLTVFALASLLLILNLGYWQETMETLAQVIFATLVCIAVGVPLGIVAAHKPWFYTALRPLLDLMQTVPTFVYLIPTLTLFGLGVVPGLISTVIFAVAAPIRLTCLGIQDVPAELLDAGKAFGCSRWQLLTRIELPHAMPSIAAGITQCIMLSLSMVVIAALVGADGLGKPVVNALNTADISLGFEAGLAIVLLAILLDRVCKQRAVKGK
T2 sequence (Q9HTI8 1-392 partner): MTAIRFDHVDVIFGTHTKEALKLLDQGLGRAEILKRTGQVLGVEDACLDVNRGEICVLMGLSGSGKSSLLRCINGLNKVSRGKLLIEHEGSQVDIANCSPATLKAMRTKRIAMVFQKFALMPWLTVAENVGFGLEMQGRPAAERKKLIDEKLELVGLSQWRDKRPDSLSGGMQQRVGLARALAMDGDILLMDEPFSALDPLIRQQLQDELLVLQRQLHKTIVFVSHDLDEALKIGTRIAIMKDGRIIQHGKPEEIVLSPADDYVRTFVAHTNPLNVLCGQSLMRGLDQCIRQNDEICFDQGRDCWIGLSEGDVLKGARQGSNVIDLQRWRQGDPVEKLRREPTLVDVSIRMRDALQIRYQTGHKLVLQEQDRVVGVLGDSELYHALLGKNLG

CaiX with CbcWV = type: cell-based, Pseudomonas aeruginosa; conditions: MKH13; pNcbcWV, pT-PA5388; SBP CaiX; [^14C]carnitine 10 μM; competitor 1 mM
CbcX and CaiX with CbcWV = type: cell-based, Pseudomonas aeruginosa; conditions: MKH13, pNcbcXWV, pT-PA5388, SBPs CbcX/CaiX, competitor 1 mM
CbcX with CbcWV = CbcX with CbcWV (Pseudomonas aeruginosa, UniProt Q9HTI6); test: Competitive uptake, MKH13 expressing cbcXWV; type: cell-based
[1] = substrate: C[N+](C)(C)CC(=O)O; test: cells, lysate or membranes; conditions: mean (SE), n = 4
[2] = substrate: C[N+](C)(C)CCO; test: cells, lysate or membranes; conditions: mean (SE), n = 4
[3] = substrate: C[N+](C)(C)C[C@H](O)CC(=O)[O-]; test: cells, lysate or membranes; conditions: other: PA5378::tn, pNcbcWV; SBP CaiXPAO1; mean (SE), n = 4
[4] = other: MKH13, pNcbcXWV, SBP CbcX, Michaelis–Menten fit

`CC(=O)OCC[N+](C)(C)C` [AC, acetylcholine] was tested. Which “% inhibition of uptake of substrate by unlabelled competitor” value (shortened to “% inhibition of uptake of substrate”) (ChoXWV) did it give?
The value was 88%.

With `CN(C)CC(=O)O` [DM, dimethylglycine] as the molecule, how does the “% inhibition of uptake of substrate” value (BetX with CbcWV) read?
The value was 56%.

And the “% inhibition of uptake of substrate” value (CaiX with CbcWV)?
The value was 2%.

What about the “% inhibition of uptake of substrate” value (CbcX and CaiX with CbcWV; [^14C]betaine 10 μM) of the same molecule?
Its value is −4%.

And the “% inhibition of uptake of substrate” value (CbcX and CaiX with CbcWV; [^14C]choline 10 μM)?
Its value is −8%.

What about the “% inhibition of uptake of substrate” value (CbcX with CbcWV) of the same molecule?
Its value is 4%.

And the “% inhibition of uptake of substrate” value (CbcX with CbcWV; MKH13, pNcbcXWV, SBP CbcX, [^14C]betaine 10 μM, competitor 1 mM)?
The value was −5%.

With `CNCC(=O)O` [MM, monomethylglycine] as the molecule, how does the “% inhibition of uptake of substrate” value (BetX with CbcWV) read?
Its value is −13%.

And the “% inhibition of uptake of substrate” value (CaiX with CbcWV)?
The value was 0%.

What about the “% inhibition of uptake of substrate” value (CbcX and CaiX with CbcWV; [^14C]betaine 10 μM) of the same molecule?
The value was 3%.

What about the “% inhibition of uptake of substrate” value (CbcX and CaiX with CbcWV; [^14C]choline 10 μM) of the same molecule?
Its value is 2%.

What about the “% inhibition of uptake of substrate” value (CbcX with CbcWV) of the same molecule?
The value was −3% and 2%.

What about the “% inhibition of uptake of substrate” value (ChoXWV) of the same molecule?
Its value is −4%.

For `C[N+](C)(C)CCOP(=O)(O)O` [PC, phosphorylcholine], which “% inhibition of uptake of substrate” value (CbcX with CbcWV; MKH13, pNcbcXWV, SBP CbcX, [^14C]choline 10 μM, competitor 1 mM) is on record?
Its value is 1%.

What about the “% inhibition of uptake of substrate” value (ChoXWV) of the same molecule?
Its value is 5%.

B1: BetX with CbcWV (Pseudomonas aeruginosa PAO1) (protein)
chain: ADKPVITIGYVDGWSDSVATTHVAAEVIREKLGYEVKLMPVAAGIMWQGVARGKLDAMLSAWLPGTHGAYYEKMKDKVVNLAINYPDARIGLIVPEYVSANSIADLQAQKDAFGGRVVGIDAGAGVMIKTDEAIKQYGLDYKLVASSGSGMIAELTRAENEKKPVVVTGWIPHWMFAKWKLKFLDDPKKVYGDTEHVDTVANPALEAKAKPVWEFLKKFGWKDGNEVGQVMLAIQEGAKPEDAAKQWVAANPGRVKDWVQ
With B1 as the molecule, how does the Km ([1]; other: MKH13, pNcbcWV + pTPA3236, SBP BetX) read?
Its Km is 0.6 (0.16) μM.

B2: ChoXWV (Sinorhizobium meliloti 1021) (protein)
chain: AEPESCGTVRFSDVGWTDITATTATATTILEALGYETDVKVLSVPVTYTSLKNKDIDVFLGNWMPTMEADIAPYREDKSVETVRENLAGAKYTLATNAKGAELGIKDFKDIAAHKDELDGKIYGIEPGNDGNRLIIDMVEKGTFDLKGFEVVESSEQGMLAQVARAEKSGDPIVFLGWEPHPMNANFKLTYLSGGDDVFGPNYGGATVHTNVRAGYTTECPNVGKLLQNLSFSLQMENEIMGKILNDGEDPEKAAAAWLKDNPQSIEPWLSGVATKDGGDGLAAVKAALGL
B2 was tested. Which Km ([2]; other: MKH13, pNchoXWV, SBP ChoX) did it give?
Its Km is 1.8 (0.36) μM.

B3: CbcX with CbcWV (Pseudomonas aeruginosa PAO1) (protein)
chain: AEPESCASVRFADVGWTDITVTTAVTRQVLESLGYKTKVNLLSVPVTYRSLANNDLDVFLGNWMPTMTNDIKQYAEKGTVETLRANLEGAKYTLAVPQYVYDGGLRSFADIAKFSDKLGNKIYGIEPGNDGNRVAQSMIDKNAFELGKFKLVESSEAGMLSQVQRAIRRNQWVVFLGWEPHPMNTRFQMKYLEGGDDFFGPNYGGATIYTNVRKGYAQECANVGQLLKNLSFTLEMENKLMDAVLNENKKPEEAAKAWLKDHPEQLDAWLAGVTTRDGQPAAAAAKLAFAK
With B3 as the molecule, how does the Km [1, 4] read?
Its Km is 24.2 (2.4) μM.

What about the Vmax [1, 4] of the same molecule?
The Vmax was 11.6 (0.6) nmol min^-1.

What about the Km [2, 4] of the same molecule?
Its Km is 2.6 (0.66) μM.

B4: CbcWV-CaiX (Pseudomonas aeruginosa PAO1) (protein)
chain: AEPEQCRTVRLGTVNWTDVVASSAVAEALLDGLGYQVKQTSASQQIVLAGLADKQLDLFLGYWQPTMQPVARPYLDKGRIEVIEPPTLADAQSTYAVPSYVAEGGLKTFADIARFKDKLGGRIYAIEPGSGSNRITRKMIDDNRFGLKGFQLVESSEAGMLTAVKRAIKRKQWVVFFGWKPHPMNLQIDMTYLTGSEDVFGPDEGAATVSTMTAAGYQAQCGNVARLLHNLRFSSAQVSQVMAPILDRTQPLDAARQWLKANPEPLKAWLDGVSTFDGKDGLAALQASLK
With B4 as the molecule, how does the Km [3] read?
Its Km is 24 μM and 24.2 (8.3) μM.

From publication PMC5503199 (Molecular microbiology, 2009)
